Source: patent US20260000652A1, “IMPEDING PLATINUM-BASED CHEMOTHERAPEUTIC INDUCED OTOTOXICITY USING A COLONY STIMULATING FACTOR 1 RECEPTOR INHIBITOR” (THE UNITED STATES OF AMERICA, AS REPRESENTED BY THE …, priority 2022, published 2026)
“Also recorded” adds a separate entry of the source.

Legend:
[1] = tested on: cochlear macrophages; test: Cochlear macrophage ablation, DAPI and CX3CR1-GFP staining of cochlear sections; format: in vivo, mouse; details: for ablation of cochlear macrophages: DAPI and CX3CR1-GFP staining of cochlea, saline- and cisplatin-treated mice, vs no pexidartinib
Excerpt: The CSF1R inhibitor can inhibit, directly and/or indirectly, macrophages, or microglia, or both. Inhibition and/or killing of macrophages and/or microglia can be referred to as “ablation.” The macrophages can comprise cochlear resident macrophages, or recruited macrophages, or both. Fractalkine receptor CX3CR1 is a regulator of macrophage function and can be utilized to label macrophages. The resident macrophages can comprise perivascular resident macrophage-like melanocytes (PVM/Ms). PVM/Ms can regulate the integrity of the blood labyrinth barrier (BLB), a barrier between the vasculature and the inner ear fluids (endolymph or perilymph). The BLB can control exchanges between the blood and fluids from intrastitial space in cochlea. The BLB can maintain the inner ear fluid ionic homeostasis. The BLB can restrict entry of most blood-borne (toxic) substances into inner ear tissues. The BLB can selectively pass ions, fluids, and nutrients into cochlea. The CSF1R inhibitor can affect, directly and/or indirectly, the blood labyrinth barrier (BLB) and one or more of its functions.
(§1) A clinically relevant mouse model of cisplatin-induced ototoxicity was developed and used to examine whether macrophages play a role in hearing loss in response to cisplatin. Pexidartinib is an inhibitor of the colony stimulating factor 1 receptor (CSF1R), which aids in the survival of microglia and cochlear resident macrophages.

[2] = tested on: outer hair cell function; test: Distortion product otoacoustic emissions (DPOAE) in cisplatin-treated mice; format: in vivo, mouse; details: cisplatin plus pexidartinib vs cisplatin only; 16, 22, 32, 40 kHz
[3] = tested on: cisplatin-induced hearing loss; test: Hearing sensitivity by auditory brainstem responses (ABR) in cisplatin-treated mice; format: in vivo, mouse; details: cisplatin plus pexidartinib vs cisplatin only, after end of third cycle
[4] = Mass spectrometry measurement of platinum content in microdissected inner ear tissues; format: in vivo, mouse; details: spiral ganglion neurons, organ of Corti, stria vascularis, utricle, saccule
[5] = tested on: outer hair cells; test: Outer hair cell survival, Myosin 7a staining and quantification of cochlear hair cells; format: in vivo, mouse; details: cisplatin mice co-treated with PLX3397, Myosin 7a staining, 16, 22.4, 32, 40 kHz regions
Protocol: Hearing sensitivity was assessed prior to pexidartinib/cisplatin administration and after the end of the third cycle of the treatment protocol using auditory brainstem responses (ABR) and distortion product otoacoustic emissions (DPOAE). […] Histology can be performed using MyosinVIla (turquoise).
The data are supportive of macrophage ablation being protective against cisplatin-induced hearing loss. […] Data and other information relevant to the experimental examples are depicted in the various figures of the drawings and summarized herein.

[6] = Cisplatin-induced weight loss in mouse model of cisplatin ototoxicity; format: in vivo; details: cisplatin-treated mice with macrophage ablation
Excerpt: as §1

Compound: N.N.[Cl][Pt][Cl] [cisplatin]
- number of macrophages in the cochlea ([1]; cisplatin vs control, whole cochlear section): reduced number of macrophages in the cochlea

Compound: FC(F)(F)c1ccc(CNc2ccc(Cc3c[nH]c4ncc(Cl)cc34)cn2)cn1 [pexidartinib]
- OHC function (DPOAE amplitudes) [2]: protected from the loss of OHC function; also recorded: higher DPOAE amplitudes
- cisplatin-induced hearing loss (ABR threshold shifts) [3]: significantly reduced hearing loss
- cisplatin-induced hearing loss (ABR threshold shifts) ([3]; listed as PLX3397): significantly reducing cisplatin-induced hearing loss
- cisplatin entry into the inner ear (platinum content) [4]: reduces cisplatin entry into the inner ear; also recorded: reduced cisplatin entry to the inner ear
- ablation of cochlear macrophages [1]: ablate macrophages; also recorded: effectively ablates cochlear macrophages; also recorded: ablation of macrophages
- ablation of cochlear macrophages ([1]; listed as PL3397): effectively ablates cochlear macrophages
- OHC survival [5]: increased OHC survival; also recorded: protection of outer hair cells against cisplatin-induced hair cell loss
- OHC survival ([5]; listed as PLX3397): greater OHC survival
- cisplatin-induced weight loss [6]: significantly reduced cisplatin-induced weight loss
